Test results as given in patent US9834549B2, “3,3-disubstituted-(8-aza-bicyclo[3.2.1]OCT-8-yl)-[5-(1H-pyrazol-4-yl)-thiophen-3-yl]-methanones as inhibitors of 11 (β)-HSD1” (The University Of Edinburgh, priority 2010, dated 2017).
Read-outs that look alike come from different tables or passages of the source.

Assays:
[1] = Oral exposure and tissue distribution in rats; format: in vivo, male Sprague Dawley rats; details: rat, oral 10 mg/kg; for Cmax: male, Sprague Dawley, plasma, read-out: Plasma Cmax (maximum plasma concentration)
Method: The circulating plasma levels and tissue distribution of certain compounds were determined following oral administration of compound (10 mg/kg) to male Sprague Dawley rats. Rats (n=3 per group) were culled at 1, 4 and 6 hours post dosing and trunk blood and tissues (liver, adipose and brain) excised. Blood samples at 30 minutes and 2 hours post dosing were taken by tail nick from the 4 hour and 6 hour rats respectively.
Compound was triple extracted from plasma (prepared from blood by a high speed centrifugation step) spiked with 1 μg of a standard compound using ethyl acetate. Extracts were dried under nitrogen and re-suspended in 60% methanol/40% ammonium acetate (5 mM).
A known weight of tissue was homogenized in 3 volumes Krebs buffer. Compound was triple extracted with ethyl acetate from the supernatant of a low speed spin spiked with 1 μg of a standard compound. Extracts were dried under nitrogen and re-suspended in 60% methanol/40% ammonium acetate (5 mM).
(§1) Samples from plasma and tissue were analyzed by TSQ Quantum Discovery Tandem Mass Spectrometer and Surveyor Liquid Chromatogram (Thermo, Hemel-Hempstead, UK). 10 μL of each sample was injected in a mobile phase consisting of 60%:40% methanol:5 mM ammonium acetate at a flow rate of 0.5 mL/minute. The column used was a BDS hypersil, C18, 50×2.1 mm with a 5 μm particle size.
(§2) Each compound was tuned with a spray voltage of 3000 V and a capillary temperature of 300° C. and values for tube lens, CID and product ions were determined.
The peak area for each compound and for the internal standard was determined and the concentration of compound per gram of tissue or mL of plasma was calculated by comparison of the peak area ratio to a standard curve.

[2] = In vitro human liver microsomal stability assay; format: in vitro ADME; details: human liver microsomes
Method: To predict in vivo metabolism of compounds, the stability of compounds incubated with human liver microsomes in vitro was determined. Human liver microsome preparations were stored at −80° C. and thawed on ice prior to use. The thawed microsomes were diluted to a concentration of 2 mg/mL in 50 mM sodium phosphate, pH 7.4. Reference and test compounds were prepared as 10 mM stocks in 100% DMSO and diluted to 1 mM in acetonitrile before use. Each compound was tested in triplicate as follows:
4 μL of test or reference compound was added to a well of a 24-well microplate and 0.5 mL of 4 mM NADPH added. The plate was then transferred to a shaker for 10 minutes at room temperature. 30 μL of the compound/NADPH solution was transferred to the well of a 96-well microplate and incubated at 37° C. for 5 minutes. 30 μL of human liver microsomes (pre-incubated at 37° C. for 5 minutes) was added to the well containing the compound/NADPH solution and the plate incubated for the selected period of time (typically 0 or 30 minutes). The reaction was stopped by adding 60 μL of ice cold […] trichloroacetic acid. The plate was centrifuged at 1000 rpm for 5 minutes at room temperature and the supernatant transferred to the well of a new 96-well V-bottomed microplate for mass spectrometric analysis.
as §1, with “Samples” for “Samples from plasma and tissue”
as §2
The peak area for each compound was measured in triplicate for the 0 and 30 minute samples and the average of each was reported. The percentage remaining after 30 minutes was calculated as the average peak area of the sample after 30 minutes divided by the average peak area at 0 minutes. The RSD was 10% or lower for each compound.

human 11β-HSD2 = target: T1, human 11β-HSD2 (Homo sapiens, UniProt P80365); assay: Cellular in vitro 11β-HSD2 enzyme inhibition assay (CHO cells); format: cell-based; details: CHO cells transfected with human 11β-HSD2
T1 construct: CHO cells stably transfected with the full-length gene coding for human 11β-HSD2 were used; expressed in transfected cells; host or cells: CHO (stably transfected)
T1 sequence (P80365 1-405): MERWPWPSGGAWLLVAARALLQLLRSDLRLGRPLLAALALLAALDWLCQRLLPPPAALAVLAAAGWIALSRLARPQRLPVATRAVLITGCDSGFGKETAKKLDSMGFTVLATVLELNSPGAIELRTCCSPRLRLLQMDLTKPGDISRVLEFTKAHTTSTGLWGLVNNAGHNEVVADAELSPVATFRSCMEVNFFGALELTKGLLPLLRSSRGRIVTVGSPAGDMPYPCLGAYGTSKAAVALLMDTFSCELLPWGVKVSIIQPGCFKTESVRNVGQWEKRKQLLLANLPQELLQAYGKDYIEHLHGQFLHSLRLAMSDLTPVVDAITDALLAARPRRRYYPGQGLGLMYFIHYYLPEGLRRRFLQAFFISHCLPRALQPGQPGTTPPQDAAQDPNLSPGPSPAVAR
Method: For measurement of inhibition of 11β-HSD2, CHO cells stably transfected with the full-length gene coding for human 11β-HSD2 were used. Assays were carried out in 96-well microplates containing 1×10^5 cells/well. Controls and compounds were plated as above, so that the final DMSO concentration in each well was 1%. To initiate the assay, 90 μL of a solution of HAMS F-12 medium containing 1% glutamine, 1% penicillin and streptomycin, and 22 nM tritiated cortisol was added to each well of the assay plate. The plate was then incubated in 5% CO2, 95% O2 at 37° C. for 16 hours.
The assay solutions were transferred to glass tubes and […] added to each tube. Each tube was vortexed thoroughly and the upper layer containing the tritiated steroid transferred to a fresh glass tube. The solvent was evaporated by placing the tubes in a heating block at 65° C. under a stream of nitrogen gas. 20 μL ethanol was added to each of the dried samples and vortexed briefly. Each sample was applied to a silica TLC plate and the plate dried. The plate was placed vertically in a glass tank containing 92% chloroform: 8% ethanol and the solvent allowed to rise up the plate. The plate was dried, placed in an imaging cassette, and overlayed with a tritium imaging plate for 1-2 days. The amount of enzyme inhibition in each sample was determined by measuring the intensity of the substrate and product spots using a phospho-imager. IC50 values for inhibitors were determined as described above for 11β-HSD1.

human 11β-HSD1 = target: T2, human 11β-HSD1 (Homo sapiens, UniProt P28845); assay: Cellular in vitro 11β-HSD1 enzyme inhibition assay (SPA, HEK293/11β-HSD1 cells); format: cell-based
T2 construct: stably transfected with a construct containing the full-length gene coding for the human 11β-HSD1 enzyme; expressed in transfected cells; host or cells: HEK293 (stably transfected, HEK293/11β-HSD1)
T2 sequence (P28845 whole entry): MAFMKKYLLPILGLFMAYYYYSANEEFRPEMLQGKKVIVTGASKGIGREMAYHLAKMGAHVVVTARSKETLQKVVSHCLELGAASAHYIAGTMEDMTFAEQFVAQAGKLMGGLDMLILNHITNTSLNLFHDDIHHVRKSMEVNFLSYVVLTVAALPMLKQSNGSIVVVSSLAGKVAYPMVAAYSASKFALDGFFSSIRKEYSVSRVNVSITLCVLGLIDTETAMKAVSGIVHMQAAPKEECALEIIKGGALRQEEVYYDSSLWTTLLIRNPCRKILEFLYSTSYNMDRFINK
Method: Compounds were assessed by a Scintillation Proximity Assay (SPA) performed according to the following protocol:
HEK293 cells were stably transfected with a construct containing the full-length gene coding for the human 11β-HSD1 enzyme to create HEK293/11β-HSD1 cells. Cells were routinely cultured in DMEM containing 10% calf foetal serum, 1% glutamine, and 1% penicillin and streptomycin. Prior to assay, cells were plated at 2×10^4 cells/well in 96-well poly-D-Lys coated flat-bottomed microplates and incubated in 5% CO2, 95% O2 at 37° C. for 24 hours. The media in each well was removed immediately before assay.
Compounds to be tested were dissolved in DMSO at 10 mM and serially diluted into water containing 10% DMSO. Diluted compounds at a volume of 10 μL were added to wells of a 96-well V-bottomed microplate. A solution of DMEM, 1% glutamine, 1% penicillin and streptomycin, and 22 nM tritiated cortisone was prepared and 90 μL added to each well of the assay plate. This solution (100 μL/well) was transferred to the plate containing the cells. The plate was then incubated in 5% CO2, 95% O2 at 37° C. for 2 hours.
Following this incubation, 50 μL of the assay solution was transferred to each well of a 96-well scintillation microplate. A mixture consisting of anti-mouse YSi SPA beads, pre-mixed with anti-cortisol antibody in assay buffer (50 mM Tris.HCl, pH 7.0; 300 mM NaCl; 1 mM EDTA, 5% glycerol) was prepared and 50 μL added to each well of the scintillation microplate. An adhesive strip was applied to the microplate and the plate gently shaken for at least 2 hours at room temperature, and then spun briefly on a low speed centrifuge. The plate was read on a scintillation counter suitable for 96-well microplates. For the calculation of percentage inhibition, a series of wells were added to the plate that represented the assay maximum and the assay minimum: one set that contained substrate without cells (minimum) and another set that contained substrate and cells without any compound (maximum).
The calculation of median inhibitory concentration (IC50) values for the compounds was performed using GraphPad Prism® software. Dose-response curves for each compound were plotted as fractional inhibition and data fitted to the four parameter logistic equation.

[3] = HEK293, potency groups, read-out: IC50 for 11β-HSD1 (HEK293)
[4] = HEK293 cells transfected with human 11β-HSD1, first value in cell, read-out: IC50 for 11β-HSD1 (HEK293)
[5] = HEK293 cells, value marked * in brackets, read-out: IC50 for 11β-HSD1 (HEK293), (*) average of at least two individual experiments

| SMILES | Cmax [1] | Liver Cmax (maximum liver concentration) [1] | % Parent Remaining at 30 min [2] | IC50 (human 11β-HSD2) | IC50 (human 11β-HSD1; [3]) | IC50 (human 11β-HSD1; [4]) | IC50 (human 11β-HSD1; [5]) |
| --- | --- | --- | --- | --- | --- | --- | --- |
| O=C(c1csc(-c2cn[nH]c2)c1)N1C2CCC1CC(O)(c1ccccn1)C2 (stereo not shown) [XX-01] | > 1000 ng/mL | ++ (3001-5000 ++) | +++ (61-100% +++) | > 10000 nM | ≤ 100 nM | 21 nM | 28 nM |
| O=C(c1csc(-c2cn[nH]c2)c1)N1C2CCC1CC(F)(c1ncccc1Cl)C2 (stereo not shown) [XX-13, [3-(3-Chloro-pyridin-2-yl)-3-fluoro-8-aza-bicyclo[3.2.1]oct-8-yl]-[5-(1H-pyrazol-4-yl)-thiophen-3-yl]-methanone] |  |  | ++ (31-60% ++) | > 10000 nM | ≤ 100 nM | 31 nM |  |
| N#CC1(c2ccccn2)CC2CCC(C1)N2C(=O)c1csc(-c2cn[nH]c2)c1 (stereo not shown) [XX-18] |  |  | +++ (61-100% +++) | > 10000 nM | ≤ 100 nM | 15 nM |  |
| O=C(c1csc(-c2cn[nH]c2)c1)N1C2CCC1CC(O)(c1cnccn1)C2 (stereo not shown) [XX-24] | 501 to 1000 ng/mL | ++ (3001-5000 ++) |  | > 10000 nM | ≤ 100 nM | 37 nM |  |
| O=C(c1csc(-c2cn[nH]c2)c1)N1C2CCC1CC(O)(c1cscn1)C2 (stereo not shown) [XX-36] | > 1000 ng/mL | ++ (3001-5000 ++) | +++ (61-100% +++) |  | ≤ 100 nM |  |  |
| O=C(c1csc(-c2cn[nH]c2)c1)N1C2CCC1CC(F)(c1cccnn1)C2 (stereo not shown) [XX-43] |  |  | +++ (61-100% +++) | > 10000 nM | ≤ 100 nM | 47 nM | 50 nM |
| O=C(c1csc(-c2cn[nH]c2)c1)N1CCC(O)(c2ncccc2Cl)CC1 [YY-02] | > 1000 ng/mL | +++ (>5001 +++) | ++ (31-60% ++) | > 10000 nM | ≤ 100 nM | 49 nM | 41 nM |
| O=C(c1csc(-c2cn[nH]c2)c1)N1CCC(O)(c2ccncc2Cl)CC1 [YY-06] |  |  | ++ (31-60% ++) | > 10000 nM | ≤ 100 nM | 28 nM |  |
